These results are taken from patent US20140249135A1, “PIM KINASE INHIBITORS AND METHODS OF THEIR USE” (NOVARTIS AG, priority 2007, published 2014).

The target of one test is Pim1 kinase (Homo sapiens, UniProt P11309). Description: Pim1 ATP depletion assay.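 Further: Luciferase-luciferin luminescence readout of residual ATP after PIM1 transfers phosphate to a peptide substrate, 40 µM ATP added, reaction run to roughly half ATP consumption.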 The class given is biochemical. The following applies: Pim1 ATP depletion assay.
A further test concerns the target Pim2 kinase (Homo sapiens, UniProt Q9P1W9). Description: Pim2 ATP depletion assay.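 Further: Luciferase-based luminescent readout of ATP remaining after PIM2 phosphorylates a BAD peptide, final 5 nM enzyme, 4 µM ATP, 10 µM peptide, 2.5% DMSO, run to roughly half ATP consumption.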 The class given is biochemical.
Another test addresses KDR kinase (Homo sapiens, UniProt P35968). In words: KDR AlphaScreen assay. The following applies: KDR IC50 (μM). Background: Bead proximity is the source of the signal in Alpha formats.
Test [1] addresses T1, human full length PKCE enzyme (Homo sapiens, UniProt Q02156).
T1 construct: human full length PKCE enzyme purchased from InVitrogen; purchased InVitrogen
T1 sequence (Q02156 1-737): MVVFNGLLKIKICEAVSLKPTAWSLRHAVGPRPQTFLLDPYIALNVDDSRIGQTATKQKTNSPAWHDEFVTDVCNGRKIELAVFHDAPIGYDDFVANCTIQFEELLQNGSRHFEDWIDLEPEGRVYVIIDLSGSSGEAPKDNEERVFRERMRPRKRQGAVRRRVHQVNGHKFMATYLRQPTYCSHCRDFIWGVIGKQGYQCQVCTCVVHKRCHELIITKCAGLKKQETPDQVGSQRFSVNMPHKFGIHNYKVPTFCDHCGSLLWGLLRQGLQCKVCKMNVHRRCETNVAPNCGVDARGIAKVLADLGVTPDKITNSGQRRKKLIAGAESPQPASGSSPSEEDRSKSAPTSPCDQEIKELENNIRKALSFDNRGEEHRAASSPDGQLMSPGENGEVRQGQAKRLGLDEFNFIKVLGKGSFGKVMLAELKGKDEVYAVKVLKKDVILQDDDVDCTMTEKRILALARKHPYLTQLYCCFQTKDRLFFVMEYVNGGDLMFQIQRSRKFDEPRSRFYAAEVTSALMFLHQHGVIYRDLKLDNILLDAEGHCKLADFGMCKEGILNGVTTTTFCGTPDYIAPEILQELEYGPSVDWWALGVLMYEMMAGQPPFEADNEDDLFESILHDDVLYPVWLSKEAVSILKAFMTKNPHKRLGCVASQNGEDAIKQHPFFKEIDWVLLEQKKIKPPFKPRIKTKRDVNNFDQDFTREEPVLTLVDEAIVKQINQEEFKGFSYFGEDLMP
In words: In vitro PKCE assay. The class given is biochemical. The following applies: 10 nM enzyme, 40 uM peptide substrate, 20 uM ATP, KinaseGlo Plus readout; read-out: PKCε IC50. (Kinase-Glo reads ATP consumption through a luciferase reaction.)

The next test deals with Pim3 kinase (Homo sapiens, UniProt Q86V86). In words: Pim3 ATP depletion assay. In kind it is biochemical.

Molecules are shown by their SMILES. Read-outs that look alike come from different tables or passages of the source. A value given as a limit tells only on which side of the number the result lay.

KDR kinase, sequence (P35968 20-1356): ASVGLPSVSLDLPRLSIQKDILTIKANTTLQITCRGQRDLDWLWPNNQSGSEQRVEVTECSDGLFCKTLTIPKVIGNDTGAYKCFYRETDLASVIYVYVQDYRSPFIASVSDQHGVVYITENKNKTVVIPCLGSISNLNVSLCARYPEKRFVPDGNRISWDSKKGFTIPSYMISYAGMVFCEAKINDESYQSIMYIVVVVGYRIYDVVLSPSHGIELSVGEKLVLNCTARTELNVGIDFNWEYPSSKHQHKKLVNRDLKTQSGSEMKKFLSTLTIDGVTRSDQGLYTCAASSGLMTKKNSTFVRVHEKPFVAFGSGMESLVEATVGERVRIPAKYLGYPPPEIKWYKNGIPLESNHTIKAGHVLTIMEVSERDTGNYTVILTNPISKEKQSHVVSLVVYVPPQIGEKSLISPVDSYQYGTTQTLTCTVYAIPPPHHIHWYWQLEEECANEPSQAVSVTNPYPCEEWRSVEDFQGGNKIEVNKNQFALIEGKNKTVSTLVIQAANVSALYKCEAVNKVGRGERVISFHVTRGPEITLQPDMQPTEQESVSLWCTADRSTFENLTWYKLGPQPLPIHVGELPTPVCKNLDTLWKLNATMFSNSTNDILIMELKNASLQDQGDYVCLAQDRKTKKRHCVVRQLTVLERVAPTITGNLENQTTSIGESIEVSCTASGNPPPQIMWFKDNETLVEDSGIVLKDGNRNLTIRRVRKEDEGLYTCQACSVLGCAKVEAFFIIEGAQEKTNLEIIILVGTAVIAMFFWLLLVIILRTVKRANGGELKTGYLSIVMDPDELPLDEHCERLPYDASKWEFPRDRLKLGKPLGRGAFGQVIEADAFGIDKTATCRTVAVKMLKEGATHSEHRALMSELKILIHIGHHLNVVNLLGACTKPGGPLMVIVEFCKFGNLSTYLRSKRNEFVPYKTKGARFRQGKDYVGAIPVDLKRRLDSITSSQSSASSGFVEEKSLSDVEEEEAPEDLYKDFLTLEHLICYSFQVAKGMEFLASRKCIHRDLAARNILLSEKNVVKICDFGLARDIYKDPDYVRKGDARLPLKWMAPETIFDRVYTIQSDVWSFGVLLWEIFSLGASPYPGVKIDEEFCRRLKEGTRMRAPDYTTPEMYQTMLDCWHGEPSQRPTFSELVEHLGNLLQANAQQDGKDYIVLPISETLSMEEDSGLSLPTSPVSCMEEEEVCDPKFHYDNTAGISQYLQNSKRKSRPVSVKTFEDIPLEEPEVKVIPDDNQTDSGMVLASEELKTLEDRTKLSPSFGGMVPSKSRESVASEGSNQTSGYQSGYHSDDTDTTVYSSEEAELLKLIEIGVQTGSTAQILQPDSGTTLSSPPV
Pim2 kinase, sequence (Q9P1W9 whole entry): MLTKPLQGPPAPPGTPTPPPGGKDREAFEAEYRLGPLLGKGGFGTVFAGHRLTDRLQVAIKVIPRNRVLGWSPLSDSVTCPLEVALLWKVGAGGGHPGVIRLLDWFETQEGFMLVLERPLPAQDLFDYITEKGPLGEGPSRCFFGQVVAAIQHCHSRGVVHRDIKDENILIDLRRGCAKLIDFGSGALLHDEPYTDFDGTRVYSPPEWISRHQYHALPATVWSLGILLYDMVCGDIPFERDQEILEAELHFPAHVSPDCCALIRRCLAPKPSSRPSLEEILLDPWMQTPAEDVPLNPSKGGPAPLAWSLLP
Pim1 kinase, sequence (P11309 whole entry): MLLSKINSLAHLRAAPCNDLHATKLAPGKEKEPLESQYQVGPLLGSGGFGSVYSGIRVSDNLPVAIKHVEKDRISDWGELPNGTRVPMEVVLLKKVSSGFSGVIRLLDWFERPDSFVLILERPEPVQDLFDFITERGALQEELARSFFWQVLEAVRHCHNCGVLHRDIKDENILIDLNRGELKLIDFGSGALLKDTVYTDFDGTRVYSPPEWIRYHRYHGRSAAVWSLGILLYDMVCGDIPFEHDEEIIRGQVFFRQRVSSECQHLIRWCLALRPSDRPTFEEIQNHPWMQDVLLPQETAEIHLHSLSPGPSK

Usually IC50 stands for the concentration that inhibits the measured activity by half. As for `Nc1nccnc1C(=O)Nc1cnccc1C1=CCCCC1` [Example 118, 3-amino-N-(4-cyclohex-1-en-1-ylpyridin-3-yl)pyrazine-2-carboxamide], the IC50 at Pim1 kinase (read-out: IC50 (μM) PIM1) is below 1 µM; on Pim2 kinase (read-out: IC50 (μM) PIM2), 1 to 10 µM; against KDR kinase it was below 1 µM; in test [1], below 1 µM; on Pim3 kinase (read-out: IC50 (μM) PIM3) it was below 1 µM.

As to `Nc1ncc(Br)nc1C(=O)Nc1cnccc1N1CCCCC1` [Example 119, 3-amino-6-bromo-N-(4-piperidin-1-ylpyridin-3-yl)pyrazine-2-carboxamide], the half-maximal inhibitory concentration (IC50) was below 1 µM on Pim1 kinase (read-out: IC50 (μM) PIM1); below 1 µM at Pim2 kinase (read-out: IC50 (μM) PIM2); 1 to 10 µM on KDR kinase; below 1 µM in test [1]; below 1 µM at Pim3 kinase (read-out: IC50 (μM) PIM3).

Consider `Nc1nc(N)c(C(=O)Nc2cnccc2N2CCCCC2)nc1Cl` [Example 121, 3,5-diamino-6-chloro-N-(4-piperidin-1-ylpyridin-3-yl)-pyrazine-2-carboxamide], for which the concentration for half-maximal inhibition (IC50) was below 1 µM on Pim1 kinase (read-out: IC50 (μM) PIM1); below 1 µM on Pim2 kinase (read-out: IC50 (μM) PIM2); below 1 µM against KDR kinase; above 25 µM in test [1]; below 1 µM on Pim3 kinase (read-out: IC50 (μM) PIM3).

For `Nc1nccnc1C(=O)Nc1cnccc1Cl` [Example 125, 3-amino-N-(4-chloropyridin-3-yl)pyrazine-2-carboxamide], the IC50 was 1 to 10 µM at Pim1 kinase (read-out: IC50 (μM) PIM1); above 25 µM on Pim2 kinase (read-out: IC50 (μM) PIM2); 1 to 10 µM at KDR kinase; 10 to 25 µM in test [1]; 10 to 25 µM on Pim3 kinase (read-out: IC50 (μM) PIM3).

Take `Nc1nccnc1C(=O)Nc1cnccc1N1CCC2(CC1)OCCO2` [Example 127, 3-amino-N-[4-(1,4-dioxa-8-azaspiro[4.5]dec-8-yl)pyridin-3-yl]pyrazine-2-carboxamide]: the half-inhibitory concentration (IC50) was 1 to 10 µM at Pim1 kinase (read-out: IC50 (μM) PIM1); above 25 µM at Pim2 kinase (read-out: IC50 (μM) PIM2); above 25 µM at KDR kinase; 1 to 10 µM in test [1]; above 25 µM at Pim3 kinase (read-out: IC50 (μM) PIM3).

On to `NC(=O)c1cccc(-c2cnc(N)c(C(=O)Nc3ccccc3N3CCCC(N)C3)n2)c1` (stereo not drawn) [Example 373, 3-amino-6-(3-carbamoyl-phenyl)-pyrazine-2-carboxylic acid [2-(3-amino-piperidin-1-yl)-phenyl]-amide], for which the IC50 (at KDR kinase; in test [1]) was below 1 µM in each case.

On to `Nc1ncc(-c2ccccc2F)nc1C(=O)Nc1ccccc1N1CCCC(N)C1` (stereo not drawn) [Example 374, 3-amino-6-(2-fluoro-phenyl)-pyrazine-2-carboxylic acid [2-(3-amino-piperidin-1-yl)-phenyl]-amide], for which the half-inhibitory concentration (IC50) at KDR kinase is 1 to 10 µM; in test [1] it was below 1 µM.

As to `COc1ccc(-c2cnc(N)c(C(=O)Nc3ccccc3N3CCCC(N)C3)n2)cc1` (stereo not drawn) [Example 375, 3-amino-6-(4-methoxy-phenyl)-pyrazine-2-carboxylic acid [2-(3-amino-piperidin-1-yl)-phenyl]-amide], the half-maximal inhibitory concentration (IC50) at KDR kinase is 1 to 10 µM; in test [1] it was below 1 µM.

On to `Cc1ccccc1-c1cnc(N)c(C(=O)Nc2[nH]c(=O)ncc2N2CCCC(N)C2)n1` (stereo not drawn) [Example 400, 3-amino-6-o-tolyl-pyrazine-2-carboxylic acid [5-(3-amino-piperidin-1-yl)-2-oxo-2,3-dihydro-pyrimidin-4-yl]-amide], for which the IC50 is below 1 µM at KDR kinase and 1 to 10 µM in test [1].

Consider `CC(=O)Nc1cccc(-c2ncc(N)c(C(=O)Nc3cnccc3N3CCC[C@H](N)C3)n2)c1` [Example 544, 2-(3-Acetylamino-phenyl)-5-amino-pyrimidine-4-carboxylic acid (3-amino-3,4,5,6-tetrahydro-2H-[1,4′]bipyridinyl-3′-yl)-amide], for which the IC50 on Pim1 kinase (read-out: PIM1 IC50) was below 1 µM; at Pim2 kinase (read-out: PIM2 IC50), below 1 µM; against KDR kinase, 10 to 25 µM; on Pim3 kinase (read-out: PIM3 IC50), below 1 µM.

As for `CCCOc1ccc(F)c(-c2ncc(N)c(C(=O)Nc3cnccc3N3CCC[C@H](N)C3)n2)c1F` [Example 545, 5-Amino-2-(2,6-difluoro-3-propoxy-phenyl)-pyrimidine-4-carboxylic acid (3-amino-3,4,5,6-tetrahydro-2H-[1,4′]bipyridinyl-3′-yl)-amide], the half-inhibitory concentration (IC50) is below 1 µM at Pim1 kinase (read-out: PIM1 IC50), below 1 µM at Pim2 kinase (read-out: PIM2 IC50), 10 to 25 µM on KDR kinase and below 1 µM on Pim3 kinase (read-out: PIM3 IC50).

With `Nc1cnc(-c2ccc(Cl)cc2F)nc1C(=O)Nc1cnccc1N1CCC[C@H](N)C1` [Example 547, 5-Amino-2-(4-chloro-2-fluoro-phenyl)-pyrimidine-4-carboxylic acid (3-amino-3,4,5,6-tetrahydro-2H-[1,4′]bipyridinyl-3′-yl)-amide], the IC50 is below 1 µM on Pim1 kinase (read-out: PIM1 IC50), below 1 µM at Pim2 kinase (read-out: PIM2 IC50), 10 to 25 µM against KDR kinase and below 1 µM on Pim3 kinase (read-out: PIM3 IC50).

Consider `COc1ccc(F)c(-c2ncc(N)c(C(=O)Nc3cnccc3N3CCC[C@H](N)C3)n2)c1` [Example 549, 5-Amino-2-(2-fluoro-5-methoxy-phenyl)-pyrimidine-4-carboxylic acid (3-amino-3,4,5,6-tetrahydro-2H-[1,4′]bipyridinyl-3′-yl)-amide], for which the IC50 is below 1 µM at Pim1 kinase (read-out: PIM1 IC50), below 1 µM at Pim2 kinase (read-out: PIM2 IC50), 10 to 25 µM on KDR kinase and below 1 µM at Pim3 kinase (read-out: PIM3 IC50).

Regarding `CCCOc1ccc(F)c(-c2ncc(N)c(C(=O)Nc3cnccc3N3CCC[C@H](N)C3)n2)c1` [Example 550, 5-Amino-2-(2-fluoro-5-propoxy-phenyl)-pyrimidine-4-carboxylic acid (3-amino-3,4,5,6-tetrahydro-2H-[1,4′]bipyridinyl-3′-yl)-amide], the IC50 on Pim1 kinase (read-out: PIM1 IC50) is below 1 µM; on Pim2 kinase (read-out: PIM2 IC50), below 1 µM; against KDR kinase, 10 to 25 µM; on Pim3 kinase (read-out: PIM3 IC50) it was below 1 µM.

On to `Cc1cnc(O)cc1-c1ccncc1NC(=O)c1nc(-c2c(F)cccc2F)ccc1N` [Example 612, 3-amino-6-(2,6-difluorophenyl)-N-(2′-hydroxy-5′-methyl-4,4′-bipyridin-3-yl)pyridine-2-carboxamide], for which the IC50 at Pim1 kinase (read-out: PIM1 IC50) is below 1 µM; on Pim2 kinase (read-out: PIM2 IC50), 1 to 10 µM; on KDR kinase, 1 to 10 µM; on Pim3 kinase (read-out: PIM3 IC50) it was below 1 µM.

Regarding `Nc1ccc(-c2ccccc2F)nc1C(=O)Nc1cnccc1-c1ccnc(O)c1` [Example 614, 3-amino-6-(2-fluorophenyl)-N-(2′-hydroxy-4,4′-bipyridin-3-yl)pyridine-2-carboxamide], the IC50 on Pim1 kinase (read-out: PIM1 IC50) was below 1 µM; on Pim2 kinase (read-out: PIM2 IC50), below 1 µM; against KDR kinase, 1 to 10 µM; on Pim3 kinase (read-out: PIM3 IC50), below 1 µM.

Turning to `Nc1cc(-c2ccncc2NC(=O)c2nc(-c3c(F)cccc3F)ccc2N)ncn1` [Example 629, 3-amino-N-[4-(6-aminopyrimidin-4-yl)pyridin-3-yl]-6-(2,6-difluoro-phenyl)pyridine-2-carboxamide], the IC50 is below 1 µM at Pim1 kinase (read-out: PIM1 IC50), below 1 µM at Pim2 kinase (read-out: PIM2 IC50), 10 to 25 µM against KDR kinase and below 1 µM at Pim3 kinase (read-out: PIM3 IC50).

Regarding `Nc1ccc(C2CCCC2)nc1C(=O)Nc1cnccc1N1CCC[C@H](N)C1` [Example 644, 3-Amino-6-cyclopentyl-pyridine-2-carboxylic acid (3-amino-3,4,5,6-tetrahydro-2H-[1,4′]bipyridinyl-3′-yl)-amide], the IC50 on Pim1 kinase (read-out: PIM1 IC50) is below 1 µM; at Pim2 kinase (read-out: PIM2 IC50), below 1 µM; against KDR kinase, 10 to 25 µM; at Pim3 kinase (read-out: PIM3 IC50), below 1 µM.

In the case of `Nc1cnc(-c2c(F)cccc2F)nc1C(=O)Nc1cnccc1N1CCC[C@H](O)C1` [Example 648, 5-Amino-2-(2,6-difluoro-phenyl)-pyrimidine-4-carboxylic acid (3-hydroxy-3,4,5,6-tetrahydro-2H-[1,4′]bi-pyridinyl-3′-yl)-amide], the 50% inhibitory concentration (IC50) is below 1 µM on Pim1 kinase (read-out: PIM1 IC50), below 1 µM on Pim2 kinase (read-out: PIM2 IC50), 10 to 25 µM on KDR kinase and below 1 µM at Pim3 kinase (read-out: PIM3 IC50).

On to `Nc1cnc(-c2ccccc2F)nc1C(=O)Nc1cnccc1N1CCC[C@H](O)C1` [Example 649, 5-Amino-2-(2-fluoro-phenyl)-pyrimidine-4-carboxylic acid (3-hydroxy-3,4,5,6-tetrahydro-2H-[1,4′]bipyridinyl-3′-yl)-amide], for which the IC50 is below 1 µM at Pim1 kinase (read-out: PIM1 IC50), below 1 µM on Pim2 kinase (read-out: PIM2 IC50), 10 to 25 µM at KDR kinase and below 1 µM on Pim3 kinase (read-out: PIM3 IC50).

Take `Nc1cnc(-c2ccccc2)nc1C(=O)Nc1cnccc1N1CCC[C@H](O)C1` [Example 650, 5-Amino-2-phenyl-pyrimidine-4-carboxylic acid (3-hydroxy-3,4,5,6-tetrahydro-2H-[1,4′]bi-pyridinyl-3′-yl)-amide]: the IC50 at Pim1 kinase (read-out: PIM1 IC50) is below 1 µM; on Pim2 kinase (read-out: PIM2 IC50) it was below 1 µM; against KDR kinase it was 10 to 25 µM; at Pim3 kinase (read-out: PIM3 IC50), below 1 µM.
